Read-outs that look alike come from different tables or passages of the source.
Assays:
[1] = cited from earlier work
[2] = cited from earlier work; remark: listed apart in the source
human rhinovirus (HRV) = conditions: low concentration nasal irrigation solution, in vitro, nasal epithelial cells; cited from earlier work
avian influenza virus = conditions: similar formulations, in vitro; cited from earlier work
[3] = Powder flow determination (funnel flow, angle of repose); assay type: physicochemical; conditions: for flowability: 100 g, funnel outflow opening 15 mm
Procedure: 100 g of powdered calcium hypochlorite of sizes ≤355 μm and ≤500 μm was added, respectively, into a dry funnel (Ø110 mm, diameter of the outflow opening=15 mm), whose bottom opening has been blocked by a plastic cover. The bottom opening of the funnel was unblocked to measure the time needed for the entire sample to flow out. The flowability of particle sizes ≤355 μm and ≤500 μm is, respectively, 35.7 g/s and 37.4 g/s. The angle of repose was calculated as 29.5° and 26.8° for particle sizes 355 μm and ≤500 μm, respectively.

[4] = Dissolving time of powdered calcium hypochlorite in acetic acid/acetate buffer; assay type: physicochemical; conditions: 2500 rpm
Procedure: • I. 58±4 mg of all sizes of the powdered material was, respectively, dissolved in 100 mL 0.25% wt. acetic acid/acetate buffer. Particle size ≤250 μm dissolved within 10 seconds, ≤355 μm within 15 seconds and ≤500 μm within one minute and 25 seconds at 2500 rpm. • II. 58±4 mg of all sizes of the powdered material was, respectively, dissolved in 100 mL 3.0% wt. acetic acid/acetate buffer. Particle size ≤250 μm dissolved within 10 seconds, ≤355 μm within 25 seconds and ≤500 μm within 25 seconds at 2500 rpm. • III. 570±40 mg of all sizes of the powdered material was, respectively, dissolved in 100 mL 0.25% wt. acetic acid/acetate buffer. Particle size ≤250 μm dissolved within 15 seconds, ≤355 μm within 45 seconds and ≤500 μm within one minute and 35 seconds at 2500 rpm. • IV. 570±40 mg of all sizes of the powdered material was, respectively, dissolved in 100 mL 3.0% wt. acetic acid/acetate buffer. Repeated with 3.0% acetic acid/acetate buffer. Particle size ≤250 μm dissolved within 15 seconds, ≤355 μm within 15 seconds and ≤500 μm within 20 seconds at 2500 rpm.

[5] = test system: bacterial log CFU/g ground chicken ground meat; conditions: separately or in a mixture; cited from earlier work
S. aureus biofilms = assay: In vitro anti-biofilm effect, viable CFU counting; assay type: cell-based, Staphylococcus aureus; conditions: 1% glutaric acid alone
Procedure: Test organisms: Pseudomonas aeruginosa or Staphylococcus aureus wild-type strains Biofilm type: 48 hours- or 24 hours-old biofilms grown on semipermeable membranes placed on solidified medium supplemented with 0.5% glucose. In the case of 48 h-old biofilms, the membranes with biofilms were transferred onto fresh plates after 24 h.
Initial viable cell amount: 5×10^9 colony forming units (CFUs)
Treatment method: Membranes with biofilms were transferred to new plates. Eight-10 layers of sterile gauze were placed on the second membrane, and 1 ml of antimicrobial solution was pipetted on the gauze layers. The treatment was carried out at room temperature for 2-to-3 h, or 4-to-6 h. In the case of the 4-to-6 h treatments, the gauze layers were replaced with fresh gauze layers with 1 ml sample solution 2 or 3 h after the treatments had been initiated.
Evaluation method: The gauze layers were discarded, and each membrane with biofilms was transferred into a 15 ml tube containing 5 ml 0.9% NaCl, vortexed for 10 sec., sonicated in an ultrasound bath for 10 min, and vortexed again for 10 sec. Ten-fold serial dilutions were made, and 10 ul of each dilution was spot-plated on LB plates for viable CFU counting.

## OCl [hypochlorous acid]
[1]
  pKa: about 7
[2]; basic pH
  standard reduction potential: +0.89
[2]; low pH
  standard reduction potential: +1.49
Human rhinovirus (HRV)
  virus-killing effect: significant virus-killing effect
Avian influenza virus
  effects against avian influenza virus: good effects

## [Ca+2].[O-]Cl.[O-]Cl [powdered calcium hypochlorite, calcium hypochlorite]
[3]; particle size 355 μm
  angle of repose: 29.5 °
[3]; particle size ≤355 μm
  flowability: 35.7 g/s
[3]; particle size ≤500 μm
  angle of repose: 26.8 °
  flowability: 37.4 g/s
[4]; I: 58±4 mg in 100 mL 0.25% wt. acetic acid/acetate buffer, particle size ≤250 μm
  dissolving time: ≤ 10 s
[4]; I: 58±4 mg in 100 mL 0.25% wt. buffer, particle size ≤355 μm
  dissolving time: ≤ 15 s
[4]; II: 58±4 mg in 100 mL 3.0% wt. acetic acid/acetate buffer, particle size ≤250 μm
  dissolving time: ≤ 10 s
[4]; II: 58±4 mg in 100 mL 3.0% wt. buffer, particle size ≤355 μm
  dissolving time: ≤ 25 s
[4]; II: 58±4 mg in 100 mL 3.0% wt. buffer, particle size ≤500 μm
  dissolving time: ≤ 25 s
[4]; III: 570±40 mg in 100 mL 0.25% wt. acetic acid/acetate buffer, particle size ≤250 μm
  dissolving time: ≤ 15 s
[4]; III: 570±40 mg in 100 mL 0.25% wt. buffer, particle size ≤355 μm
  dissolving time: ≤ 45 s
[4]; IV: 570±40 mg in 100 mL 3.0% wt. acetic acid/acetate buffer, particle size ≤250 μm
  dissolving time: ≤ 15 s
[4]; IV: 570±40 mg in 100 mL 3.0% wt. buffer, particle size ≤355 μm
  dissolving time: ≤ 15 s
[4]; IV: 570±40 mg in 100 mL 3.0% wt. buffer, particle size ≤500 μm
  dissolving time: ≤ 20 s

## CC(=O)C(=O)O [pyruvic acid]
[5]
  reduction of bacterial log CFU/g: ~2 log

## O=C([O-])CCC(=O)O.[Na+] [monosodium succinate]
[5]
  reduction of bacterial log CFU/g: ~2 log

## O=C(O)CCCC(=O)O [glutaric acid]
S. aureus biofilms
  effect on the biofilm: only minor effect
